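Exposure lasted 48 hours, with cells grown in 96-well plates and compounds tested at five concentrations. Abbreviation: GI50, concentration required for 50% inhibition of growth. TGI is the concentration that stops growth completely.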
Experiments:
Assay in all cases: inhibition of tumour cell growth, NCI panel, 48 h
[1] = test system: HOP-62 NSCLC
[2] = test system: HCT-15 colon
[3] = test system: 786-0 renal
[4] = test system: SK-OV-3 ovarian
[5] = test system: NCI-H460 lung
[6] = test system: SR leukemia
[7] = test system: LOX IMVI melanoma
[8] = test system: HCT-116 colon
[9] = test system: UACC-257 melanoma
[10] = test system: HT29 colon

Row | Compound | TGI [1] [µM] | TGI [2] [µM] | TGI [3] [µM] | TGI [4] [µM] | TGI [5] [µM] | TGI [6] [µM] | TGI [7] [µM] | TGI [8] [µM] | TGI [9] [µM] | TGI [10] [µM] | GI50 [1] [µM] | GI50 [2] [µM] | GI50 [3] [µM] | GI50 [4] [µM] | GI50 [5] [µM] | GI50 [6] [µM] | GI50 [7] [µM] | GI50 [8] [µM] | GI50 [9] [µM] | GI50 [10] [µM]
1 | COc1cc(=O)oc(/C=C/C=C/C=C/C(C)=C\C2(C)OC(C)C(C)(O)C2O)c1C (configuration not stated) | > 100 | > 100 | > 100 | > 100 | > 100 | > 100 | > 100 | > 100 | > 100 | > 100 |  |  |  |  |  |  |  |  |  | 
2 | COC(=O)[C@H](Cc1cn(C)cn1)NC(=O)[C@@H](NC(=O)Nc1cc(C(F)(F)F)cc(C(F)(F)F)c1)C(C)(C)C | > 10 | > 10 | > 10 | > 10 | > 10 | > 10 | > 10 | > 10 | > 10 | > 10 | > 10 | > 10 | > 10 | > 10 | > 10 | > 10 | > 10 | > 10 | > 10 | > 10
3 | O=C1CCC(N2C(=O)c3cccc(NCCOCCOCCNC(=O)c4cc5c(o4)C(=O)c4ccccc4C5=O)c3C2=O)C(=O)N1 (configuration not stated) | 3.3 | 19.2 | 10.9 | 7.78 | 3.87 | 22.9 | 2.5 | 6.9 | 2.85 | > 100 | 1.84 | 4.08 | 3.14 | 3.09 | 1.97 | 1.76 | 1.1 | 2.32 | 1.48 | 3.35
4 | NC(Cc1c[nH]c2cc(F)ccc12)C(=O)O (configuration not stated) | > 2500 | > 2500 | > 2500 | > 2500 | > 2500 | > 2500 | > 2500 | > 2500 | > 2500 | > 2500 | 961 | 888 | 1080 | 877 | 768 | 1040 | 820 | 1030 | 1490 | 850
5 | COCC(=O)NC/C=C/c1ccc2ncnc(Nc3ccc(Oc4ccc(C)nc4)c(C)c3)c2c1 | 71 | 74.2 | 42 | 4.52 | 22.3 | 50.4 | 33.8 | 30.9 | 36.1 | 39.4 | 22.4 | 9.36 | 15.1 | 0.295 | 4.74 | 10.7 | 15 | 13.7 | 14.9 | 15.5
6 | N#CC(C(=O)O)C(c1c(Cl)cccc1Cl)C(C#N)C(=O)O (configuration not stated) | > 100 | > 100 | > 100 | > 100 | > 100 | > 100 | > 100 | > 100 | > 100 | > 100 |  |  |  |  |  |  |  |  |  | 
7 | CC(C)=CCC/C(C)=C/CC/C(C)=C/C1CCC(=O)C1(C)C (configuration not stated) | 69.6 | 28.9 | 32.2 | 81 | 32.6 | 40.8 | 28.9 | 30.7 | 42.7 | 32.4 |  |  |  |  |  |  |  |  |  | 
8 | O=C(CC1SC(=Nc2ccccc2Cl)NC1=O)Nc1ccc(Cl)cc1 (configuration not stated) | > 100 | 30.8 | > 100 | > 100 | > 100 | 69.9 | > 100 | > 100 | > 100 | > 100 |  |  |  |  |  |  |  |  |  | 
9 | CC(=Nc1ccccc1)C1=C(O)C(Cc2ccc(F)cc2)NC1=O (configuration not stated) | > 100 | > 100 | > 100 | 9.01 | > 100 | > 100 | > 100 | > 100 | > 100 | > 100 | 0.959 | 0.488 | 9.67 | 1.23 | 0.44 | 0.26 | 0.619 | 0.49 | > 100 | 0.339
10 | CN=C(N)NC | > 100 | > 100 | > 100 | > 100 | > 100 | > 100 | > 100 | > 100 | > 100 | > 100 |  |  |  |  |  |  |  |  |  | 
11 | CCOC(=O)C(=O)C(/C(=N/N(C)C)C(=O)Nc1ccc(C)cc1C)c1nc2ccccc2[nH]c1=O (configuration not stated) | > 100 | > 100 | > 100 | > 100 | > 100 | > 100 | > 100 | > 100 | > 100 | > 100 |  |  |  |  |  |  |  |  |  | 
12 | CCN(CC)/[N+]([O-])=N/OCC(C)O (configuration not stated) | > 100 | > 100 | > 100 | > 100 | > 100 | > 100 | > 100 | > 100 | > 100 | > 100 |  |  |  |  |  |  |  |  |  | 
13 | COc1cc2ccc3c4cc(OC)c(OC(C)C)cc4c[n+](C)c3c2cc1OC | > 100 | > 100 | > 100 | > 100 | > 100 | > 100 | > 100 | > 100 | > 100 | > 100 |  |  |  |  |  |  |  |  |  | 
14 | CCN(CC)c1ccc(/C=N/NC(=O)c2ccccc2Nc2ccnc(C(F)(F)F)c2)c(O)c1 | 5.35 | > 100 | 0.984 | > 100 | > 23.4 | 0.728 |  | > 100 | 1.72 | > 100 | 0.121 | 0.0457 | 0.183 | 0.169 | 0.0681 | 0.0721 | 0.0837 | 0.0895 | 0.303 | 0.362
15 | CCCCCCCCCCCCC(NC(C)=O)(C(=O)OCC)C(=O)OCC | 27.5 | 23 | 29.3 | 25.7 | 24 | 48.2 | 25.2 | 19.2 | 26.1 |  | 13.9 | 9.38 | 14.9 | 12.6 | 7.65 | 6.94 | 11.8 | 5.83 | 11.7 | 

— PubChem BioAssay (NCI)
